Experimental data from patent US6313090A, “Methods for treating parasitic infection using thiopeptides” (The United States of America as represented by the …, priority 2000, dated 2001).

How the values were obtained:
[1] = Precipitation seen in culture medium of the growth assay; type: physicochemical; conditions: highest concentrations (final 0.2mM) in culture
Experimental: (§1) Assay of Growth inhibition. Thiostrepton (1525 u/mg; Calbiochem) and anisomycin (Sigma) were dissolved at 100 mM in DMSO (Pierce). P. falciparum (strain 3D7) (44) was maintained in culture with human erythrocytes (5% hematocrit) in RPMI-1640 (Life Technologies) supplemented with HEPES and sodium bicarbonate and human sera (10%) under standard conditions (18,19). The growth inhibition assay was conducted as described (20). Briefly, the parasitemia was adjusted to 0.1% parasitemia, 2.5% hematocrit and 200 μl aliquots placed in wells of a microtitre dish. Serial dilutions of drugs were made in RPMI. Thiostrepton was diluted to 10 mM in DMSO before the serial dilutions in RPMI. Aliquots (20 μl) were added in triplicate to the cultures in the microtitre plate, mixing well. At the highest concentrations (final 0.2mM), thiostrepton precipitates. After incubation for 48 hours under standard conditions, [2,8-^3 H]-hypoxanthine Moravek Biochemicals, 12.5 Ci/mmol) in RPMI (20 μl, 0.05 mCi/ml) was added to each well. After incubation for a further 24 hours, the cultures were lysed and incorporated radioactivity was measured with an automated counter.

[2] = test system: rpoB/C mRNA encoded by the 35-kb plastid-like organelle genome; type: cell-based, P. falciparum
Experimental: As of organelle and cyloplasmic transcript levels. RNA polymerase transcript levels were assessed by comparing the amounts of RNA synthesized at timepoints following drug treatment. Cultures of P. falciparum (3.2% parasitemia, 5% hematocrit) were treated with thiostrepton at 8 μM and rifampin (Sigma) at 80 μM; near the IC99 values (this study and ref. 22). Aliquots (5 ml) of treated and control cultures were removed and immediately processed for RNA with a guanidinium thiocyanate solution, according to the manufacturer's directions (RNAgents, Promega). All RNA samples were dissolved in 50 μl DEPC-treated water, DNase I treated as previously described (23) and an aliquot (1 μl) was removed for RT-PCR First strand synthesis of cDNA was completed with a random hexamer (Superscript Preamplification System, Life Technologies). One-tenth of the CDNA product was utilized for PCR of rpoB/C, MSA1, and rRNA. Primers corresponding to the 3' region of rpoB, 5'-GGGCTTTAGAAGCTTTTGG-3' (SEQ ID NO:1), and the 5' region of rpoC, 5'-[…]-3' (SEQ ID NO:2) were applied as described (2,3) for PCR of nascent rpoB/C transcripts. Reactions were cycled with the following parameters: 94° C./30 seconds, 42° C./30 seconds, 72° C./60 seconds, 35 cycles. Primers for amplification of nucleotide 64 to 614 of MSA1 with 5'-GTGTGATAATATTCATGG-3' (SEQ ID NO:3) and 5'-GGAGAGCATTTGGTG-3' (SEQ ID NO:4)(24) and the small subunit rRNA with oligonucleotides 841 and 844 (23) were used for amplification reactions following the parameters in the respective references except with 35 cycles. Samples were also analyzed after 25 cycles of amplification to ensure detection in the linear range of the amplification reaction, with similar results. Following electrophoresis of aliquots from the amplification reactions on 1% agarose:TBE gels, samples were transferred to nylon membranes (GeneScreen Plus, DuPont) and hybridized as described (25). The amplification products were probed with 5'-^32 P-labeled oligonucleotides. The rpoB/C products were probed with 5'-[…]-3' (SEQ ID NO:5) (nucleotide 2009-2030 of rpoB) and 5'-CGGAGAGGTATTAATACC-3' (SEQ ED NO:6) (nucleotide 108-125 of rpoC), in 5×SSC, 10 mM sodium phosphate, 0.05% sodium pyrophosphate, 1% sodium dodecyl sulfate, 5×Denhardt's solution, 100 μg/ml yeast tRNA, 42° C. and washed in the hybridization solution lacking Denhardt's and tRNA at 37° C., three times. The final wash was 1×SSC, 0.5% sodium dodecyl sulfate, 42° C. followed by autoradiography. The same results were obtained with either probe. The MSA1 amplification products were similarly probed with 5'-[…]-3' (SEQ ID NO:7) and the rRNA products with oligonucleotide 842 (23).
The target of inhibition by thiostrepton. […]

[3] = test system: P. falciparum total protein synthesis; assay: Assay of inhibition of protein synthesis, [3H]leucine incorporation; type: cell-based
Experimental: Assay of Inhibition of Protein Synthesis. Assay for inhibition of protein synthesis was similar to above except the culture and drug dilutions were in RPMI-1640 without leucine (Select-Amine, Life Technologies) and the sera was extensively dialyzed as described (21). Also, the cultures were adjusted to 1% parasitemia prior to the experiment. Microtitre plates were set up with drug dilutions as described above except cultures were incubated with drug for only 4 hours. [3,4,5-^3 H]-Leucine (Moravek Biochemicals, 122 Ci/mmol, 0.5 mCi/ml, 100 μCi) was diluted to 4 ml in RPMI without leucine. The radiolabeled leucine (20 μl, […]) was added to each well and the plates were further incubated for four hours. The microtitre plates were processed as above to quantitate the incorporated radiolabel.
Assay of inhibition. The effect of thiostrepton on growth and protein synthesis of P. falciparum was compared to anisomycin, since the effect of both of these drugs is on protein synthesis. To assay the effect of thiostrepton and anisomycin on the growth of P. faciparum, inhibition of the uptake and incorporation of [^3 H]hypoxanthine was quantitated at serial dilutions of the drugs on an in vitro culture of P. falciparum. […] Inhibition of the incorporation of [^3 H]leucine was also tested at the same dilutions of the drugs. […]

[4] = test system: P. falciparum (strain 3D7); assay: Assay of growth inhibition, [3H]hypoxanthine incorporation; type: cell-based
Experimental: as §1
Assay of inhibition. The effect of thiostrepton on growth and protein synthesis of P. falciparum was compared to anisomycin, since the effect of both of these drugs is on protein synthesis. To assay the effect of thiostrepton and anisomycin on the growth of P. faciparum, inhibition of the uptake and incorporation of [^3 H]hypoxanthine was quantitated at serial dilutions of the drugs on an in vitro culture of P. falciparum. […] Inhibition of the incorporation of [^3 H]leucine was also tested at the same dilutions of the drugs. For anisomycin, total protein synthesis was inhibited 50% at the IC50 (0.511 μM) for inhibition of growth, with the concentration-response almost superimposable on that of protein synthesis. […] This would occur if organelle protein synthesis was the target of inhibition (29,30).

C=C(NC(=O)C(=C)NC(=O)c1csc(C2=N[C@@H]3c4csc(n4)[C@H]4NC(=O)c5csc(n5)[C@H]([C@](C)(O)[C@@H](C)O)NC(=O)[C@H]5CSC(=N5)/C(=C/C)NC(=O)[C@H]([C@@H](C)O)NC(=O)c5csc(n5)[C@]3(CC2)NC(=O)[C@H](C)NC(=O)C(=C)NC(=O)[C@H](C)NC(=O)[C@H]([C@@H](C)CC)N[C@@H]2C=Cc3c([C@H](C)O)cc(nc3[C@H]2O)C(=O)O[C@@H]4C)n1)C(N)=O [Thiostrepton, thiostrepton]
precipitation [1]: precipitates
decay of mRNA corresponding to rpoB/C, time of drug treatment ([2]; thiostrepton at 8 μM, rifampin at 80 μM): ≤ 6 h
decline of the rpoB/C product with time ([2]; time course, 8 μM): notable affect after only one hour of treatment
effect on levels of nuclear-encoded MSA mRNA and total rRNA ([2]; within the duration of the experiment (8 hours), 8 μM): no effect
inhibition of total protein synthesis ([3]; at the IC50 for growth): only a negligible amount of inhibition
concentration required for almost complete inhibition of total protein synthesis ([3]; relative to the IC50 for growth): More than ten-fold higher concentrations than the IC50
IC50 ([4]; Plasmodium falciparum, 3D7, in vitro culture, [3H]hypoxanthine uptake and incorporation): 1800 nM
IC99 (near) ([4]; concentration used, near the IC99 value, this study): ~8 µM
